In ChEMBL document CHEMBL1759842, “Discovery of non-glucoside SGLT2 inhibitors” (Bioorg Med Chem Lett, 2011):

Columns and labels:
Assay type in all cases: cell-based
[1] = target: T1, Sodium/glucose cotransporter 1 (Homo sapiens, UniProt P13866); assay: Inhibition of human SGLT1 expressed in CHO cells assessed as inhibition of [14C]-alpha-methyl-D-glucopyranoside transport after 60 mins by scintillation counting
T1 sequence (P13866 whole entry): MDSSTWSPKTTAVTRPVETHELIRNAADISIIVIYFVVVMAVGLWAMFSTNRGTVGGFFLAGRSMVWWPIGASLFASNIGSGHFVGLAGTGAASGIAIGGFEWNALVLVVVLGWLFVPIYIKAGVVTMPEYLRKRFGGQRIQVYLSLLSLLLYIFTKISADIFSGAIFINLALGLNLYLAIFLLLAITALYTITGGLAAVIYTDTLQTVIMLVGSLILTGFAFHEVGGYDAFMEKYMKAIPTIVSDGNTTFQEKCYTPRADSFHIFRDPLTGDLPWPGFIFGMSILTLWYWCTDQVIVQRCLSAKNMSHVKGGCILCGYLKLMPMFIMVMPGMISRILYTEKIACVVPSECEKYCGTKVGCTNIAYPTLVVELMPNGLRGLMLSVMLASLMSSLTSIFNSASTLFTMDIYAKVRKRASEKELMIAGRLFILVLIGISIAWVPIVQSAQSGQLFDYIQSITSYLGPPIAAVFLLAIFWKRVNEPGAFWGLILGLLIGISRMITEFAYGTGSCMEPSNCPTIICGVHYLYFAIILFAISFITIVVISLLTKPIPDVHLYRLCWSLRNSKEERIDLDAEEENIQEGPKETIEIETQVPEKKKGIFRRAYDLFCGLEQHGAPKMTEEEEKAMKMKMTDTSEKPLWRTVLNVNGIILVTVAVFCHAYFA

[2] = target: T2, Sodium/glucose cotransporter 2 (Homo sapiens, UniProt P31639); assay: Inhibition of human SGLT2 expressed in CHO cells assessed as inhibition of [14C]-alpha-methyl-D-glucopyranoside transport after 60 mins by scintillation counting
T2 sequence (P31639 whole entry): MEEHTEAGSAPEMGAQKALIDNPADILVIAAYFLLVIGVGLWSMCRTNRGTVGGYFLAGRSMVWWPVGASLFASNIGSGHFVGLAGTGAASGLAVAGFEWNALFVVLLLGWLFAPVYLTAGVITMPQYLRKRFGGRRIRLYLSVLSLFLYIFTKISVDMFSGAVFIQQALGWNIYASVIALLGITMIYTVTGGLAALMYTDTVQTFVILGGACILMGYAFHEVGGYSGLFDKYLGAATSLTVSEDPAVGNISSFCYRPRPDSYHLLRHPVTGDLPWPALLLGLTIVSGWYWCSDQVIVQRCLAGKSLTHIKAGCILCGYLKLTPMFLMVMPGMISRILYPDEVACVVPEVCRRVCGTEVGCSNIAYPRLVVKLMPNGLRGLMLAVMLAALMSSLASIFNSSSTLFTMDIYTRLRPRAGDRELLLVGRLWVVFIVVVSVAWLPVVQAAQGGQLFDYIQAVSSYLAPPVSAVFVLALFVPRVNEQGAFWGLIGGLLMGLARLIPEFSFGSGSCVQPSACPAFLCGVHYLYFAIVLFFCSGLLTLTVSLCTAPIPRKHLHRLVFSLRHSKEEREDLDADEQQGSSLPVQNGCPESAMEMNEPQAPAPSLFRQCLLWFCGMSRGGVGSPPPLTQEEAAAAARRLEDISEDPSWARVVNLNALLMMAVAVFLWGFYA

[3] = target: T3, Sodium/glucose cotransporter 2 (Rattus norvegicus, UniProt P53792); assay: Inhibition of rat SGLT2 expressed in CHO cells assessed as inhibition of [14C]-alpha-methyl-D-glucopyranoside transport after 60 mins by scintillation counting
T3 sequence (P53792 whole entry): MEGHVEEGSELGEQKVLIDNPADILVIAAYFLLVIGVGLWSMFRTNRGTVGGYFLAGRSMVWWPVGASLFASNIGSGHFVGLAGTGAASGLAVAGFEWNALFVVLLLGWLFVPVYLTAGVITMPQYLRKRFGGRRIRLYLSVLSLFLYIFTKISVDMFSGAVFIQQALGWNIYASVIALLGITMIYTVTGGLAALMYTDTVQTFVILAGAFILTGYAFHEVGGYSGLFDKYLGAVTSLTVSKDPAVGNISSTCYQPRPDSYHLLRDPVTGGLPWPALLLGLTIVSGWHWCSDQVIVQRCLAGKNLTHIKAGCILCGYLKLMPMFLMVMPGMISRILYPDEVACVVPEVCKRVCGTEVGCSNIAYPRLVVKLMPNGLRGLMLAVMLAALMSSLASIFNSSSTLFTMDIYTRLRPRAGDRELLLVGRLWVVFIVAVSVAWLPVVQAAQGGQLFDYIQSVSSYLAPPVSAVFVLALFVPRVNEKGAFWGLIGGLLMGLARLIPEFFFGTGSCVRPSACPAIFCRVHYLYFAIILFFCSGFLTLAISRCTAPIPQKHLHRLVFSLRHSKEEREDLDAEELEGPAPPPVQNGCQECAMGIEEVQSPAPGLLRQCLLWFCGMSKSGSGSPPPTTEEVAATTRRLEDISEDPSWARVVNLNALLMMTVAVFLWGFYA

[4] = target: T4, Sodium/glucose cotransporter 1 (Rattus norvegicus, UniProt P53790); assay: Inhibition of rat SGLT1 expressed in CHO cells assessed as inhibition of [14C]-alpha-methyl-D-glucopyranoside transport after 60 mins by scintillation counting
T4 sequence (P53790 whole entry): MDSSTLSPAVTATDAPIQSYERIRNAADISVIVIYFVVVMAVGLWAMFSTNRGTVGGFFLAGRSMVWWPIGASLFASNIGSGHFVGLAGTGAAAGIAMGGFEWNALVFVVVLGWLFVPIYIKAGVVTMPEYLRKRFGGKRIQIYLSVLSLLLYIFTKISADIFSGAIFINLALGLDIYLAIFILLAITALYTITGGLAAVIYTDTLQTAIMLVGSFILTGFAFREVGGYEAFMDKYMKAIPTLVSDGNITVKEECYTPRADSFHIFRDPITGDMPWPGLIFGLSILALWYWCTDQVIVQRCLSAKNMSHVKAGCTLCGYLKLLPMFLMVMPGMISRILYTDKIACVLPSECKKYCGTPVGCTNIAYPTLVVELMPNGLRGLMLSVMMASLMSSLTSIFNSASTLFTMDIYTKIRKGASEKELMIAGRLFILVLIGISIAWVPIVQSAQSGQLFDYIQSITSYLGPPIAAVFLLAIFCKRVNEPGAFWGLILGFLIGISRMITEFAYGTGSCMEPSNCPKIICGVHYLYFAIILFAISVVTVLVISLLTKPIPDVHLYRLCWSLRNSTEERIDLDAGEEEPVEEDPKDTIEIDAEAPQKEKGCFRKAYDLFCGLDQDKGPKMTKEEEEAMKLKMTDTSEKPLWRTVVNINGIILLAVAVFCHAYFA

IC50 [1]: 7 µM
IC50 [2]: 1.4 µM
IC50 [3]: 0.4 µM
IC50 [4]: 9 µM
Structure (SMILES): Cn1c(CN2C(=O)CSc3ccc(C(F)(F)F)cc32)nnc1SCc1ccc(Cl)cc1
